Publication PMC7256108 (Cellular and Molecular Life Sciences: CMLS, 2019)
Read-outs that look alike come from different tables or passages of the source.

What was measured:
OR1A1 wt = biological target: T1, OR1A1 wt (Homo sapiens, UniProt Q9P1Q5); experiment: cAMP-luminescence GloSensor assay, recombinant OR1A1 wt; format: cell-based; details: OR1A1 wt
T1 construct: 39aa rho-tag; expressed in transfected cells; host or cells: NxG 108CC15 or HEK-293 cells
T1 sequence (Q9P1Q5 1-309): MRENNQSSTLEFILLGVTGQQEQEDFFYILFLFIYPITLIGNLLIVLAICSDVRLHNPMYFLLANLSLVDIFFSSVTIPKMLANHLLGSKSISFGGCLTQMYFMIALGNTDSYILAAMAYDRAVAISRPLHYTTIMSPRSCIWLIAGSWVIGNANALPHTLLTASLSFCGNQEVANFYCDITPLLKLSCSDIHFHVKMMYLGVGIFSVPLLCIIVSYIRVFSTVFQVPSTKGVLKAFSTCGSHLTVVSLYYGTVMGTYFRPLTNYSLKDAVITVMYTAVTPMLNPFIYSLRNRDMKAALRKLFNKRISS
Protocol: (§1) The assay was performed as reported above.
(§2) All data are presented as mean ± SD.

OR2M3 wt = biological target: T2, OR2M3 wt (Homo sapiens, UniProt Q8NG83); experiment: cAMP-luminescence GloSensor assay, recombinant OR2M3 wt; format: cell-based; details: no odorant
T2 construct: full-length gene-specific forward and reverse primers were added; 39aa rho-tag; expressed in transfected cells; host or cells: NxG 108CC15 or HEK-293 cells
T2 sequence (Q8NG83 1-312): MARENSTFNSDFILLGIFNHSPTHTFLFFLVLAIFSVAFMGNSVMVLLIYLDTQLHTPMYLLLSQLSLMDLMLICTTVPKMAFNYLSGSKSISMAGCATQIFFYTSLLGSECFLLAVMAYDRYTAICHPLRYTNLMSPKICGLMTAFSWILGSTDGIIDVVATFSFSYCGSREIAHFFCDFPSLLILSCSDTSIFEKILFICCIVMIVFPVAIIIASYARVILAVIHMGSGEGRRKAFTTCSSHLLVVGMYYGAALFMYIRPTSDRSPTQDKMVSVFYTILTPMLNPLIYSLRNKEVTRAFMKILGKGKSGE
Protocol: as §1, §2

Row | SMILES | EC50 (OR1A1 wt; 10 µmol/L Cu^2+, read-out: EC50 in the presence of Cu^2+) [µM] | EC50 (OR1A1 wt; read-out: EC50 in the absence of Cu^2+) [µM] | odorant-independent constitutive activity of OR2M3 (OR2M3 wt; Cu^2+ supplementation > 10 µmol/L) | basal activity of OR2M3 (OR2M3 wt; Cu^2+ supplementation of 10 µmol/L)
1 | C=C(C)[C@@H]1CC=C(C)C(=O)C1 [(R)-(-)-Carvone, (R)-(-)-carvone] | 159 ± 43.1 | 126 ± 34.1 | – | –
2 | [Cl][Cu][Cl] [Cu^2+, copper(II) chloride] | – | – | decreased | did not inhibit
